PubChem BioAssay (NCI)
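Five concentrations, 48 hours, 96-well plates. TGI: concentration producing complete growth inhibition.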

Columns and labels:
Experiment in all cases: NCI anticancer screen, dose series, 48 h
OVCAR-3 ovarian = tested on: OVCAR-3 ovarian
COLO 205 colon = tested on: COLO 205 colon
OVCAR-5 ovarian = tested on: OVCAR-5 ovarian
SK-MEL-5 melanoma = tested on: SK-MEL-5 melanoma
A549 NSCLC = tested on: A549 NSCLC
SW-620 colon = tested on: SW-620 colon
SNB-19 CNS = tested on: SNB-19 CNS
HOP-92 NSCLC = tested on: HOP-92 NSCLC
SK-OV-3 ovarian = tested on: SK-OV-3 ovarian
MOLT-4 leukemia = tested on: MOLT-4 leukemia
A498 renal = tested on: A498 renal
ACHN renal = tested on: ACHN renal
HOP-62 NSCLC = tested on: HOP-62 NSCLC
DU-145 prostate = tested on: DU-145 prostate
CAKI-1 renal = tested on: CAKI-1 renal
PC-3 prostate = tested on: PC-3 prostate
MDA-N = tested on: MDA-N
K-562 leukemia = tested on: K-562 leukemia
SN12C renal = tested on: SN12C renal
NCI-H23 lung = tested on: NCI-H23 lung
SNB-75 CNS = tested on: SNB-75 CNS
T-47D breast = tested on: T-47D breast
OVCAR-8 ovarian = tested on: OVCAR-8 ovarian
HT29 colon = tested on: HT29 colon
M14 melanoma = tested on: M14 melanoma
MCF7 breast = tested on: MCF7 breast
RXF 393 renal = tested on: RXF 393 renal
TK-10 renal = tested on: TK-10 renal
UACC-62 melanoma = tested on: UACC-62 melanoma
RPMI-8226 leukemia = tested on: RPMI-8226 leukemia
CCRF-CEM leukemia = tested on: CCRF-CEM leukemia
OVCAR-4 ovarian = tested on: OVCAR-4 ovarian
NCI/ADR-RES ovarian = tested on: NCI/ADR-RES ovarian
HCC-2998 colon = tested on: HCC-2998 colon
HL-60(TB) leukemia = tested on: HL-60(TB) leukemia
EKVX NSCLC = tested on: EKVX NSCLC
SR leukemia = tested on: SR leukemia
MDA-MB-231 breast = tested on: MDA-MB-231 breast
KM12 colon = tested on: KM12 colon
UACC-257 melanoma = tested on: UACC-257 melanoma
SF-268 CNS = tested on: SF-268 CNS
LOX IMVI melanoma = tested on: LOX IMVI melanoma
SK-MEL-28 melanoma = tested on: SK-MEL-28 melanoma
SF-539 CNS = tested on: SF-539 CNS
MDA-MB-435 = tested on: MDA-MB-435
SF-295 CNS = tested on: SF-295 CNS
UO-31 renal = tested on: UO-31 renal
BT-549 breast = tested on: BT-549 breast
NCI-H460 lung = tested on: NCI-H460 lung
HCT-116 colon = tested on: HCT-116 colon
SK-MEL-2 melanoma = tested on: SK-MEL-2 melanoma
786-0 renal = tested on: 786-0 renal
U251 CNS = tested on: U251 CNS
HCT-15 colon = tested on: HCT-15 colon
IGROV1 ovarian = tested on: IGROV1 ovarian
NCI-H226 lung = tested on: NCI-H226 lung

## Fc1cccc(C2SCC3=Nc4ccccc4CN32)c1 (stereo unspecified)
OVCAR-3 ovarian
  TGI: 70.5 µM
COLO 205 colon
  TGI: > 100 µM
OVCAR-5 ovarian
  TGI: > 100 µM
SK-MEL-5 melanoma
  TGI: 41.1 µM
A549 NSCLC
  TGI: > 100 µM
SW-620 colon
  TGI: > 100 µM
SNB-19 CNS
  TGI: > 100 µM
HOP-92 NSCLC
  TGI: > 100 µM
SK-OV-3 ovarian
  TGI: > 100 µM
MOLT-4 leukemia
  TGI: > 100 µM
A498 renal
  TGI: > 100 µM
ACHN renal
  TGI: > 100 µM
HOP-62 NSCLC
  TGI: > 100 µM
DU-145 prostate
  TGI: > 100 µM
CAKI-1 renal
  TGI: > 100 µM
PC-3 prostate
  TGI: > 100 µM
MDA-N
  TGI: > 100 µM
K-562 leukemia
  TGI: > 100 µM
SN12C renal
  TGI: > 100 µM
NCI-H23 lung
  TGI: > 100 µM
SNB-75 CNS
  TGI: > 100 µM
T-47D breast
  TGI: > 100 µM
OVCAR-8 ovarian
  TGI: > 100 µM
HT29 colon
  TGI: 74.3 µM
M14 melanoma
  TGI: > 100 µM
MCF7 breast
  TGI: > 100 µM
RXF 393 renal
  TGI: > 100 µM
TK-10 renal
  TGI: > 100 µM
UACC-62 melanoma
  TGI: > 100 µM
RPMI-8226 leukemia
  TGI: > 100 µM
CCRF-CEM leukemia
  TGI: > 100 µM
OVCAR-4 ovarian
  TGI: > 100 µM
NCI/ADR-RES ovarian
  TGI: 35.9 µM
HCC-2998 colon
  TGI: > 100 µM
HL-60(TB) leukemia
  TGI: > 100 µM
EKVX NSCLC
  TGI: > 100 µM
SR leukemia
  TGI: > 100 µM
MDA-MB-231 breast
  TGI: > 100 µM
KM12 colon
  TGI: > 100 µM
UACC-257 melanoma
  TGI: > 100 µM
SF-268 CNS
  TGI: > 100 µM
LOX IMVI melanoma
  TGI: > 100 µM
SK-MEL-28 melanoma
  TGI: > 100 µM
SF-539 CNS
  TGI: > 100 µM
MDA-MB-435
  TGI: > 100 µM
SF-295 CNS
  TGI: > 100 µM
UO-31 renal
  TGI: > 100 µM
BT-549 breast
  TGI: > 100 µM
NCI-H460 lung
  TGI: > 100 µM
HCT-116 colon
  TGI: 88.6 µM
SK-MEL-2 melanoma
  TGI: 49.7 µM
786-0 renal
  TGI: > 100 µM
U251 CNS
  TGI: > 100 µM
HCT-15 colon
  TGI: > 100 µM

## N#CC(C/C=C/c1ccccc1)NNC(=O)c1c(Cl)c(Cl)c(Cl)c(Cl)c1-c1nc2ccc(C(=O)c3ccccc3)cc2[nH]1 (stereo unspecified)
OVCAR-3 ovarian
  TGI: 37.4 µM
COLO 205 colon
  TGI: 42 µM
OVCAR-5 ovarian
  TGI: 94.7 µM
IGROV1 ovarian
  TGI: > 100 µM
SK-MEL-5 melanoma
  TGI: 32 µM
A549 NSCLC
  TGI: 55.4 µM
SW-620 colon
  TGI: > 100 µM
SNB-19 CNS
  TGI: 35.8 µM
HOP-92 NSCLC
  TGI: 73.3 µM
SK-OV-3 ovarian
  TGI: 55.5 µM
MOLT-4 leukemia
  TGI: 81.5 µM
A498 renal
  TGI: 41.9 µM
ACHN renal
  TGI: 97.3 µM
HOP-62 NSCLC
  TGI: 24.8 µM
DU-145 prostate
  TGI: 50.7 µM
CAKI-1 renal
  TGI: > 100 µM
PC-3 prostate
  TGI: 35.9 µM
MDA-N
  TGI: 19.4 µM
K-562 leukemia
  TGI: 55.2 µM
SN12C renal
  TGI: 32.7 µM
NCI-H23 lung
  TGI: 55.8 µM
SNB-75 CNS
  TGI: 46.4 µM
T-47D breast
  TGI: 63.8 µM
OVCAR-8 ovarian
  TGI: 37.1 µM
HT29 colon
  TGI: 33.2 µM
M14 melanoma
  TGI: 30.9 µM
MCF7 breast
  TGI: 36.2 µM
RXF 393 renal
  TGI: 39.8 µM
TK-10 renal
  TGI: 66 µM
RPMI-8226 leukemia
  TGI: 50.2 µM
CCRF-CEM leukemia
  TGI: 20.3 µM
OVCAR-4 ovarian
  TGI: 73.9 µM
NCI/ADR-RES ovarian
  TGI: 31 µM
HL-60(TB) leukemia
  TGI: 54.5 µM
EKVX NSCLC
  TGI: 47.4 µM
SR leukemia
  TGI: 45.2 µM
MDA-MB-231 breast
  TGI: 34.4 µM
KM12 colon
  TGI: > 100 µM
UACC-257 melanoma
  TGI: > 100 µM
LOX IMVI melanoma
  TGI: 28.5 µM
SK-MEL-28 melanoma
  TGI: > 100 µM
SF-539 CNS
  TGI: 26.9 µM
MDA-MB-435
  TGI: 51.9 µM
SF-295 CNS
  TGI: 22.4 µM
NCI-H226 lung
  TGI: 41.6 µM
UO-31 renal
  TGI: > 100 µM
BT-549 breast
  TGI: 54.4 µM
HCT-116 colon
  TGI: 62.2 µM
SK-MEL-2 melanoma
  TGI: 45 µM
786-0 renal
  TGI: 30.2 µM
U251 CNS
  TGI: 25 µM
HCT-15 colon
  TGI: 29.2 µM
